Results from US11357865B2, “Compositions containing nucleic acid nanoparticles with modular functionality” (Sixfold Bioscience Ltd., priority 2020, dated 2022).

System: HeLa cells
Assay: Aptamer uptake, confocal fluorescence microscopy of live HeLa cells
Assay type: cell-based
Conditions: 200 nM Cy5-labelled aptamer, increasing lengths of time, Lysotracker and early endosome GFP stains
Description: Cells were imaged by confocal microscopy after treatment with 200 nM Cy5-labelled E07 min A-1.0 aptamer (A-1.0) or 200 nM Cy5-labelled constructs (SQ1-1000-001). For aptamer uptake experiments, 1×10^4 cells were plated in each well of a μ-Slide 8 well ibiditreat chamber (IBIDI), in 300 μL DMEM containing 10% v/v FBS. For uptake experiments, 3.4×10^3 cells (HeLa, MDA-MB-231 and A549 cells) or 6.8×10^3 cells (Mcf-7) were plated in each well of a μ-Slide 18 well ibiditreat chamber (IBIDI), in 100 μL DMEM containing 10% v/v FBS. 5 hours after cells had adhered and 48 hours before imaging, media was replaced with 50 particles per cell (PPC) CellLight early endosome-GFP (Thermo Fisher Scientific) for overnight incubation at 37° C. Additionally, 200 μL DMEM aliquots containing 200 nM aptamer were added to cells at corresponding incubation time points. Subsequently, media was removed and replaced with 60 nM LysoTracker Red DND-99 (Thermo Fisher Scientific) in 100-200 μL DMEM for 1 hour at 37° C. Cells were then washed once with Hank's Balanced Salt Solution (HBSS) (Gibco). Finally, 100-200 μL imaging media (HBSS buffered with 20 mM 4-(2-hydroxyethyl)-1-piperazineethanesulfonic acid (HEPES), adjusted to pH 7.4) was added to cells. Confocal images were captured with an EVOS microscope or a Zeiss LSM510 laser scanning microscope using 60× oil objective lens. […]

A-1.0: E07min aptamer, EGFR-targeting, 5′ Cy5, 2′F U, C, SEQ ID 75 (GGACGGAUUUAAUCGCCGUAGAAAAGCAUGUCAAAGCCGGAACCGUCC; 5′ Cy5; 2′F U and C; 2′ fluorine)
intracellular localisation after internalisation: accumulate in lysosomes after internalisation
